# Measurements from PubChem BioAssay (NCI).
#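 Where inhibition never reached the appropriate level, the endpoint shown equals the highest concentration tested. Otherwise, values were interpolated linearly from a five-concentration, 48-hour dose response in 96-well plates. At the GI50, growth is halved. TGI: concentration producing complete growth inhibition.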
# Tests used:
# Experiment in all cases: NCI anticancer screen, dose series, 48 h
# [1] = test system: 786-0 renal
# [2] = test system: A498 renal
# [3] = test system: A549 NSCLC
# [4] = test system: ACHN renal
# [5] = test system: BT-549 breast
# [6] = test system: CAKI-1 renal
# [7] = test system: CCRF-CEM leukemia
# [8] = test system: COLO 205 colon
# [9] = test system: DU-145 prostate
# [10] = test system: EKVX NSCLC
# [11] = test system: HCC-2998 colon
# [12] = test system: HCT-116 colon
# [13] = test system: HCT-15 colon
# [14] = test system: HL-60(TB) leukemia
# [15] = test system: HOP-62 NSCLC
# [16] = test system: HOP-92 NSCLC
# [17] = test system: HS 578T breast
# [18] = test system: HT29 colon
# [19] = test system: IGROV1 ovarian
# [20] = test system: KM12 colon
# [21] = test system: LOX IMVI melanoma
# [22] = test system: M14 melanoma
# [23] = test system: MALME-3M melanoma
# [24] = test system: MCF7 breast
# [25] = test system: MDA-MB-231 breast
# [26] = test system: MDA-MB-435
# [27] = test system: MOLT-4 leukemia
# [28] = test system: NCI-H226 lung
# [29] = test system: NCI-H23 lung
# [30] = test system: NCI-H460 lung
# [31] = test system: NCI-H522 lung
# [32] = test system: NCI/ADR-RES ovarian
# [33] = test system: OVCAR-3 ovarian
# [34] = test system: OVCAR-4 ovarian
# [35] = test system: OVCAR-5 ovarian
# [36] = test system: OVCAR-8 ovarian
# [37] = test system: PC-3 prostate
# [38] = test system: RPMI-8226 leukemia
# [39] = test system: SF-268 CNS
# [40] = test system: SF-295 CNS
# [41] = test system: SF-539 CNS
# [42] = test system: SK-MEL-2 melanoma
# [43] = test system: SK-MEL-28 melanoma
# [44] = test system: SK-MEL-5 melanoma
# [45] = test system: SK-OV-3 ovarian
# [46] = test system: SN12C renal
# [47] = test system: SNB-19 CNS
# [48] = test system: SNB-75 CNS
# [49] = test system: SR leukemia
# [50] = test system: SW-620 colon
# [51] = test system: T-47D breast
# [52] = test system: TK-10 renal
# [53] = test system: U251 CNS
# [54] = test system: UACC-257 melanoma
# [55] = test system: UACC-62 melanoma
# [56] = test system: UO-31 renal
# [57] = test system: K-562 leukemia
# [58] = test system: RXF 393 renal
smiles,measurement,setting,value
C=C1C(=O)O[C@H]2[C@H]1CC/C(COC(=O)NCc1ccc(Cn3c(=O)sn(-c4ccc(OC)cc4)c3=O)cc1)=C\CC[C@@]1(C)O[C@@H]21,GI50,[1],2.05 µM
same,TGI,[1],4.51 µM
same,GI50,[2],5.65 µM
same,TGI,[2],17.8 µM
same,GI50,[3],15.2 µM
same,TGI,[3],29.1 µM
same,GI50,[4],1.73 µM
same,TGI,[4],3.27 µM
same,GI50,[5],4.37 µM
same,TGI,[5],16.3 µM
same,GI50,[6],2.34 µM
same,TGI,[6],6.83 µM
same,GI50,[7],0.561 µM
same,TGI,[7],3.05 µM
same,GI50,[8],1.85 µM
same,TGI,[8],3.38 µM
same,GI50,[9],1.81 µM
same,TGI,[9],3.21 µM
same,GI50,[10],3.5 µM
same,TGI,[10],14.6 µM
same,GI50,[11],10.4 µM
same,TGI,[11],25.5 µM
same,GI50,[12],1.93 µM
same,TGI,[12],3.78 µM
same,GI50,[13],1.68 µM
same,TGI,[13],3.36 µM
same,GI50,[14],2.12 µM
same,TGI,[14],5.48 µM
same,GI50,[15],13.2 µM
same,TGI,[15],26.9 µM
same,GI50,[16],1.61 µM
same,TGI,[16],3.47 µM
same,GI50,[17],2.92 µM
same,TGI,[17],14.2 µM
same,GI50,[18],1.96 µM
same,TGI,[18],3.51 µM
same,GI50,[19],2.85 µM
same,TGI,[19],8.04 µM
same,GI50,[20],3.75 µM
same,TGI,[20],14 µM
same,GI50,[21],1.73 µM
same,TGI,[21],3.12 µM
same,GI50,[22],2.19 µM
same,TGI,[22],5.65 µM
same,GI50,[23],1.81 µM
same,TGI,[23],3.76 µM
same,GI50,[24],1.77 µM
same,TGI,[24],3.63 µM
same,GI50,[25],1.97 µM
same,TGI,[25],4.11 µM
same,GI50,[26],1.83 µM
same,TGI,[26],3.84 µM
same,GI50,[27],1.93 µM
same,TGI,[27],5.95 µM
same,GI50,[28],12.9 µM
same,TGI,[28],30.7 µM
same,GI50,[29],2.97 µM
same,TGI,[29],9.9 µM
same,GI50,[30],3.7 µM
same,TGI,[30],13.5 µM
same,GI50,[31],1.67 µM
same,TGI,[31],3.1 µM
same,GI50,[32],12.3 µM
same,TGI,[32],28.8 µM
same,GI50,[33],1.61 µM
same,TGI,[33],3.04 µM
same,GI50,[34],1.64 µM
same,TGI,[34],3.98 µM
same,GI50,[35],2.06 µM
same,TGI,[35],4.81 µM
same,GI50,[36],2.37 µM
same,TGI,[36],5.82 µM
same,GI50,[37],2.19 µM
same,TGI,[37],5.27 µM
same,GI50,[38],2.01 µM
same,TGI,[38],4.52 µM
same,GI50,[39],3.14 µM
same,TGI,[39],9.86 µM
same,GI50,[40],15 µM
same,TGI,[40],28.9 µM
same,GI50,[41],1.96 µM
same,TGI,[41],4.15 µM
same,GI50,[42],3.19 µM
same,TGI,[42],9.46 µM
same,GI50,[43],1.97 µM
same,TGI,[43],4.1 µM
same,GI50,[44],12 µM
same,TGI,[44],24.8 µM
same,GI50,[45],14.4 µM
same,TGI,[45],27.4 µM
same,GI50,[46],2.14 µM
same,TGI,[46],4.96 µM
same,GI50,[47],11.7 µM
same,TGI,[47],24.6 µM
same,GI50,[48],3.44 µM
same,TGI,[48],15.3 µM
same,GI50,[49],0.535 µM
same,TGI,[49],5.2 µM
same,GI50,[50],1.77 µM
same,TGI,[50],3.61 µM
same,GI50,[51],1.86 µM
same,TGI,[51],4.53 µM
same,GI50,[52],1.91 µM
same,TGI,[52],3.49 µM
same,GI50,[53],4.11 µM
same,TGI,[53],13.9 µM
same,GI50,[54],2.03 µM
same,TGI,[54],4.34 µM
same,GI50,[55],1.86 µM
same,TGI,[55],3.84 µM
same,GI50,[56],1.56 µM
same,TGI,[56],2.94 µM
C[C@]12CCC3c4ccc(O)cc4CCC3C1CC[C@@]2(O)CNC(=O)/C=C/c1ccc(O)c(O)c1 (some centres undefined),GI50,[1],11.4 µM
same,TGI,[1],24.9 µM
same,GI50,[2],14.9 µM
same,TGI,[2],29.8 µM
same,GI50,[3],2.63 µM
same,TGI,[3],9.68 µM
same,GI50,[4],2.41 µM
same,TGI,[4],6.14 µM
same,GI50,[5],3.03 µM
same,TGI,[5],15.3 µM
same,GI50,[6],11.7 µM
same,TGI,[6],33 µM
same,GI50,[7],4.33 µM
same,TGI,[7],31.2 µM
same,GI50,[8],3.55 µM
same,TGI,[8],10.4 µM
same,GI50,[9],3.29 µM
same,TGI,[9],14.8 µM
same,GI50,[10],9.97 µM
same,TGI,[10],29.8 µM
same,GI50,[11],10.8 µM
same,TGI,[11],23.4 µM
same,GI50,[12],3.34 µM
same,TGI,[12],11.2 µM
same,GI50,[13],4.33 µM
same,TGI,[13],16.8 µM
same,GI50,[14],3.99 µM
same,TGI,[14],20.1 µM
same,GI50,[15],6.78 µM
same,TGI,[15],22.6 µM
same,GI50,[16],12.1 µM
same,TGI,[16],33.6 µM
same,GI50,[17],6.24 µM
same,TGI,[17],30.8 µM
same,GI50,[18],4.83 µM
same,TGI,[18],19.1 µM
same,GI50,[19],2.47 µM
same,TGI,[19],7.26 µM
same,GI50,[57],3.38 µM
same,TGI,[57],12.6 µM
same,GI50,[20],2.89 µM
same,TGI,[20],11.1 µM
same,GI50,[21],2.37 µM
same,TGI,[21],6.52 µM
same,GI50,[22],10.1 µM
same,TGI,[22],22.5 µM
same,GI50,[24],12.4 µM
same,TGI,[24],45.4 µM
same,GI50,[25],3.58 µM
same,TGI,[25],16.4 µM
same,GI50,[26],3.01 µM
same,TGI,[26],8.07 µM
same,GI50,[27],5.09 µM
same,TGI,[27],31.2 µM
same,GI50,[28],15.4 µM
same,TGI,[28],33.1 µM
same,GI50,[30],4.9 µM
same,TGI,[30],31.6 µM
same,GI50,[31],2.51 µM
same,TGI,[31],5.91 µM
same,GI50,[32],23.9 µM
same,TGI,[32],> 100 µM
same,GI50,[33],2.89 µM
same,TGI,[33],21.5 µM
same,GI50,[34],26.4 µM
same,TGI,[34],81.3 µM
same,GI50,[35],25.1 µM
same,TGI,[35],46.9 µM
same,GI50,[36],2.65 µM
same,TGI,[36],17.1 µM
same,GI50,[37],5.65 µM
same,TGI,[37],22.8 µM
same,GI50,[38],8.56 µM
same,TGI,[38],50.7 µM
same,GI50,[58],3.29 µM
same,TGI,[58],18.7 µM
same,GI50,[39],9.45 µM
same,TGI,[39],> 100 µM
same,GI50,[40],4.07 µM
same,TGI,[40],22.1 µM
same,GI50,[41],5.1 µM
same,TGI,[41],18 µM
same,GI50,[42],13.5 µM
same,TGI,[42],32.2 µM
same,GI50,[43],24.8 µM
same,TGI,[43],59 µM
same,GI50,[44],3.23 µM
same,TGI,[44],12 µM
same,GI50,[45],16.7 µM
same,TGI,[45],34.5 µM
same,GI50,[46],7.54 µM
same,TGI,[46],20.6 µM
same,GI50,[47],10.6 µM
same,TGI,[47],23.8 µM
same,GI50,[48],13.2 µM
same,TGI,[48],29 µM
same,GI50,[49],5.66 µM
same,TGI,[49],26.7 µM
same,GI50,[50],9.36 µM
same,TGI,[50],27.2 µM
same,GI50,[51],6.61 µM
same,TGI,[51],23.9 µM
same,GI50,[52],2.52 µM
same,TGI,[52],13.7 µM
same,GI50,[53],3.02 µM
same,TGI,[53],10.6 µM
same,GI50,[54],0.0562 µM
same,TGI,[54],6.54 µM
same,GI50,[55],5.22 µM
same,TGI,[55],17 µM
same,GI50,[56],3.5 µM
same,TGI,[56],15.7 µM
